What was measured:
Format in all cases: protein assay
[1] = molecular target: T1, S-adenosylmethionine synthetase (MAT 1 and MAT 2) (Rattus norvegicus, UniProt P13444+P18298); assay: Inhibition constants of M-2 Forms of rat methionine adenosyltransferase using ATP as the variable substrate; Inhibition is competitive type
[2] = molecular target: T1, S-adenosylmethionine synthetase (MAT 1 and MAT 2); assay: Inhibition constants of M-2 Forms of rat methionine adenosyltransferase using Methionine as the variable substrate; Inhibition is competitive type
[3] = molecular target: T1, S-adenosylmethionine synthetase (MAT 1 and MAT 2); assay: Inhibition constants of MT Forms of rat Novikoff Ascitic Hepatomae using ATP as the variable substrate; Inhibition is competitive type
[4] = molecular target: T1, S-adenosylmethionine synthetase (MAT 1 and MAT 2); assay: Inhibition constants of MT Forms of rat Novikoff Ascitic Hepatomae using Methionine as the variable substrate; Inhibition is non competitive inhibition
[5] = molecular target: T1, S-adenosylmethionine synthetase (MAT 1 and MAT 2); assay: Inhibition constants of M-2 Forms of rat methionine adenosyltransferase using Methionine as the variable substrate; Inhibition is non competitive type
[6] = molecular target: T1, S-adenosylmethionine synthetase (MAT 1 and MAT 2); assay: Inhibition constants of MT Forms of rat Novikoff Ascitic Hepatomae using Methionine as the variable substrate; Inhibition is non competitive type

Ki [1] [µM] | Ki [2] [µM] | Ki [3] [µM] | Ki [4] [µM] | Ki [5] [µM] | Ki [6] [µM] | Compound
16 | 26 | 11 | 38 |  |  | NC(CCSC(CP(=O)(O)OP(=O)(O)NP(=O)(O)O)[C@H]1O[C@@H](n2cnc3c2NC=NC3N)[C@H](O)[C@@H]1O)C(=O)O (stereo partly drawn)
0.36 |  | 0.27 |  | 3 | 2.3 | NC(CCS[C@@H](CNP(=O)(O)OP(=O)(O)OP(=O)(O)O)[C@H]1OC(n2cnc3c2NC=NC3N)[C@H](O)[C@@H]1O)C(=O)O (stereo partly drawn)
